Measurements as given in PubChem BioAssay AID2060601 (Molecular Pharmacology Branch, DTP, NCI, 2025).

Tested on: 874868-142-R-J2-PDC complex spheroids, growth % test/control
Experiment: Anticancer human tumor 874868-142-R-J2-PDC patient-derived head and neck squamous carcinoma cell line growth inhibition [CLK]
Conditions: for IC50: curve of first compound; for viability, T/C: stronger effect = lower value
Summary of the method: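 Multi-cell-type spheroids combined patient-derived tumor cells with HUVEC endothelial cells and human mesenchymal stem cells. Paired agents were dosed in half-log steps down from about clinical Cmax, or from 10 microM where Cmax was unknown.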

[1] = second compound 0.0316 µM, first compound 0.0316 µM
[2] = second compound 0.0316 µM, first compound 0.1 µM
[3] = second compound 0.0316 µM, first compound 0.316 µM
[4] = second compound 0.0316 µM, first compound 1 µM
[5] = second compound 0.0316 µM, first compound 3.16 µM
[6] = second compound 0.0316 µM, first compound 10 µM
[7] = second compound 0.1 µM, first compound 0.0316 µM
[8] = second compound 0.1 µM, first compound 0.1 µM
[9] = second compound 0.1 µM, first compound 0.316 µM
[10] = second compound 0.1 µM, first compound 1 µM
[11] = second compound 0.1 µM, first compound 3.16 µM
[12] = second compound 0.1 µM, first compound 10 µM
[13] = second compound 0.316 µM, first compound 0.0316 µM
[14] = second compound 0.316 µM, first compound 0.1 µM
[15] = second compound 0.316 µM, first compound 0.316 µM
[16] = second compound 0.316 µM, first compound 1 µM
[17] = second compound 0.316 µM, first compound 3.16 µM
[18] = second compound 0.316 µM, first compound 10 µM
[19] = second compound 1 µM, first compound 0.0316 µM
[20] = second compound 1 µM, first compound 0.1 µM
[21] = second compound 1 µM, first compound 0.316 µM
[22] = second compound 1 µM, first compound 1 µM
[23] = second compound 1 µM, first compound 3.16 µM
[24] = second compound 1 µM, first compound 10 µM
[25] = second compound 3.16 µM, first compound 0.0316 µM
[26] = second compound 3.16 µM, first compound 0.1 µM
[27] = second compound 3.16 µM, first compound 0.316 µM
[28] = second compound 3.16 µM, first compound 1 µM
[29] = second compound 3.16 µM, first compound 3.16 µM
[30] = second compound 3.16 µM, first compound 10 µM
[31] = second compound 10 µM, first compound 0.0316 µM
[32] = second compound 10 µM, first compound 0.1 µM
[33] = second compound 10 µM, first compound 0.316 µM
[34] = second compound 10 µM, first compound 1 µM
[35] = second compound 10 µM, first compound 3.16 µM
[36] = second compound 10 µM, first compound 10 µM
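Also: spheroids exposed to the compounds for 7 days.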
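For viability, T/C in this document: 100% = DMSO vehicle control viability.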

`C=CC(=O)N1CCN(c2nc(=O)n(-c3c(C)ccnc3C(C)C)c3nc(-c4c(O)cccc4F)c(F)cc23)C(C)C1` (stereo unspecified) + CNC(=O)c1ccc(Nc2nc(OC3CCCC3)c3c(-c4ccc5nc(C)oc5c4)c[nH]c3n2)c(OC)c1 gave an IC50 (second compound 0.0316 µM) greater than 10000 nM, an IC50 (second compound 0.1 µM) greater than 10000 nM and an IC50 (second compound 0.316 µM) greater than 10000 nM. For the same compound, the IC50 (second compound 1 µM) was less than 31.6 nM, the IC50 (second compound 3.16 µM) was less than 31.6 nM and the IC50 (second compound 10 µM) was less than 31.6 nM. For the same compound, the viability, T/C [1] was 99.7%, the viability, T/C [2] was 82.6% and the viability, T/C [3] was 96.6%. The viability, T/C [4] was 108%, the viability, T/C [5] was 124% and the viability, T/C [6] was 103%. It also gave a viability, T/C [7] of 82.7%, a viability, T/C [8] of 91.5% and a viability, T/C [9] of 90.3%. It also gave a viability, T/C [10] of 92.1%, a viability, T/C [11] of 101% and a viability, T/C [12] of 88%. For the same compound, the viability, T/C [13] was 50.4%, the viability, T/C [14] was 59.7% and the viability, T/C [15] was 56.9%. It also gave a viability, T/C [16] of 53.4%, a viability, T/C [17] of 59% and a viability, T/C [18] of 58.3%. The viability, T/C [19] was 40.6%, the viability, T/C [20] was 47.7% and the viability, T/C [21] was 36.3%. The viability, T/C [22] was 46.1%, the viability, T/C [23] was 41.2% and the viability, T/C [24] was 40.6%. It also gave a viability, T/C [25] of 42.8%, a viability, T/C [26] of 39.2% and a viability, T/C [27] of 41.1%. It also gave a viability, T/C [28] of 45.2%, a viability, T/C [29] of 53% and a viability, T/C [30] of 36.4%. It also gave a viability, T/C [31] of 31.3%, a viability, T/C [32] of 33.5% and a viability, T/C [33] of 35.4%. It also gave a viability, T/C [34] of 41%, a viability, T/C [35] of 40% and a viability, T/C [36] of 28.3%.

Work on `CC(CO)NC(=O)c1cc(-c2ccc(Cl)cc2)nn(-c2cnn(C)c2)c1=O` (stereo unspecified) + CNC(=O)c1ccc(Nc2nc(OC3CCCC3)c3c(-c4ccc5nc(C)oc5c4)c[nH]c3n2)c(OC)c1 yielded an IC50 (second compound 0.0316 µM) greater than 10000 nM, an IC50 (second compound 0.1 µM) greater than 10000 nM and an IC50 (second compound 0.316 µM) greater than 10000 nM. The IC50 (second compound 1 µM) was less than 31.6 nM, the IC50 (second compound 3.16 µM) was less than 31.6 nM and the IC50 (second compound 10 µM) was less than 31.6 nM. For the same compound, the viability, T/C [1] was 98%, the viability, T/C [2] was 90.1% and the viability, T/C [3] was 90.2%. It also gave a viability, T/C [4] of 120%, a viability, T/C [5] of 125% and a viability, T/C [6] of 104%. For the same compound, the viability, T/C [7] was 82.2%, the viability, T/C [8] was 90% and the viability, T/C [9] was 82.6%. For the same compound, the viability, T/C [10] was 85.9%, the viability, T/C [11] was 94.8% and the viability, T/C [12] was 109%. It also gave a viability, T/C [13] of 50.6%, a viability, T/C [14] of 51.4% and a viability, T/C [15] of 56.2%. For the same compound, the viability, T/C [16] was 48.5%, the viability, T/C [17] was 58.5% and the viability, T/C [18] was 67.4%. For the same compound, the viability, T/C [19] was 52.4%, the viability, T/C [20] was 38.1% and the viability, T/C [21] was 34.9%. For the same compound, the viability, T/C [22] was 43.1%, the viability, T/C [23] was 50.8% and the viability, T/C [24] was 50.7%. The viability, T/C [25] was 40.3%, the viability, T/C [26] was 36.8% and the viability, T/C [27] was 44.3%. It also gave a viability, T/C [28] of 41.2%, a viability, T/C [29] of 52.4% and a viability, T/C [30] of 44.4%. The viability, T/C [31] was 34.7%, the viability, T/C [32] was 36.4% and the viability, T/C [33] was 36.1%. For the same compound, the viability, T/C [34] was 33.7%, the viability, T/C [35] was 50.9% and the viability, T/C [36] was 42.2%.

Work on `CCN1CCN(Cc2ccc(Nc3ncc(F)c(-c4cc(F)c5nc(C)n(C(C)C)c5c4)n3)nc2)CC1` + CNC(=O)c1ccc(Nc2nc(OC3CCCC3)c3c(-c4ccc5nc(C)oc5c4)c[nH]c3n2)c(OC)c1 yielded an IC50 (second compound 0.0316 µM) greater than 1000 nM, an IC50 (second compound 0.1 µM) greater than 1000 nM and an IC50 (second compound 0.316 µM) greater than 1000 nM. It also gave an IC50 (second compound 1 µM) of less than 3.16 nM, an IC50 (second compound 3.16 µM) of less than 3.16 nM and an IC50 (second compound 10 µM) of less than 3.16 nM. For the same compound, the viability, T/C (second compound 0.0316 µM, first compound 0.00316 µM) was 96.9%, the viability, T/C (second compound 0.0316 µM, first compound 0.01 µM) was 103% and the viability, T/C [1] was 95.2%. It also gave a viability, T/C [2] of 100%, a viability, T/C [3] of 121% and a viability, T/C [4] of 113%. It also gave a viability, T/C (second compound 0.1 µM, first compound 0.00316 µM) of 106%, a viability, T/C (second compound 0.1 µM, first compound 0.01 µM) of 91.8% and a viability, T/C [7] of 94.5%. For the same compound, the viability, T/C [8] was 81.6%, the viability, T/C [9] was 109% and the viability, T/C [10] was 113%. The viability, T/C (second compound 0.316 µM, first compound 0.00316 µM) was 59.4%, the viability, T/C (second compound 0.316 µM, first compound 0.01 µM) was 62.7% and the viability, T/C [13] was 56.2%. For the same compound, the viability, T/C [14] was 64.6%, the viability, T/C [15] was 84.8% and the viability, T/C [16] was 99.9%. For the same compound, the viability, T/C (second compound 1 µM, first compound 0.00316 µM) was 46.2%, the viability, T/C (second compound 1 µM, first compound 0.01 µM) was 44.8% and the viability, T/C [19] was 44.4%. It also gave a viability, T/C [20] of 49.3%, a viability, T/C [21] of 67.9% and a viability, T/C [22] of 68.7%. The viability, T/C (second compound 3.16 µM, first compound 0.00316 µM) was 41.9%, the viability, T/C (second compound 3.16 µM, first compound 0.01 µM) was 50.8% and the viability, T/C [25] was 41.5%. It also gave a viability, T/C [26] of 38.5%, a viability, T/C [27] of 50.8% and a viability, T/C [28] of 72.5%. For the same compound, the viability, T/C (second compound 10 µM, first compound 0.00316 µM) was 46.2%, the viability, T/C (second compound 10 µM, first compound 0.01 µM) was 40.5% and the viability, T/C [31] was 56%. The viability, T/C [32] was 45.6%, the viability, T/C [33] was 66.8% and the viability, T/C [34] was 71.2%.
